Laboratory results from patent US10906977B2, “Enhancing the therapeutic activity of immune checkpoint inhibitor” (Maine Medical Center Research Institute, priority 2016, dated 2021).

Assays:
fibroblasts [1] = assay: Growth factor-induced fibroblast migration on denatured collagen; type: cell-based, human; details: FGF-2 20 ng/ml; FIG. 22B, 22E, 24D
Method: (§1) Transwell membranes (8.0 um pore size) were coated with 5 μg/ml of native or denatured collagen for 12 hrs at […] as described previously (13). Migration buffer containing RPMI 1640, 1 mM MgCl2, 0.2 mM MnCl2 and 0.5% BSA in the presence or absence of 5× concentrated serum free SKOV-3 CM or 20 ng/ml FGF-2 was placed in the lower chambers. SKOV-3 or fibroblasts (1×105) were resuspended in migration buffer containing RPMI 1640, 1 mM MgCl2, 0.2 mM MnCl2 and 0.5% BSA in the presence or absence of antibodies directed to the HU177 epitope, or α10β1, (10 μg/ml) or 100 uM of the MEK inhibitor ([…]). Cells were added to the top chamber and allowed to migrate from 2 to 4 hrs. Cells remaining on the top of the membranes were removed and cells that had migrated to the underside of the membrane were quantified by direct cell counts of crystal violet stained cells or by measuring the optical density of eluted cell-associated crystal violet dye as previously described (15). Assays were completed at least 3×.

TGF-β = assay: Serum cytokines in B16F10 tumor bearing mice injected with cPG peptide (ELISA); type: in vivo, C57BL/6 mice; details: injected 3× per week; serum after 14 days; FIG. 26A
Method: FIG. 26A-FIG. 26C is a series of bar charts showing that the injection of a peptide (cPG) containing the HU177 collagen epitope induces expression of the immune suppressive growth factor TGF-β in mouse circulation. C57BL/6 mice were injected subcutaneously with B16F10 melanoma cells (0.5×10^6) and tumors were allowed to form. Mice were next injected 3× per week with […] per mouse of cPG peptide. Serum was […] after 14 days. Serum was diluted in assay buffer and the relative levels of cytokines were examined by ELISA. FIG. 26A is a bar graph wherein data bars represent relative levels of TGF-β as determined by ELISA from control (DMSO) treated mouse and two different cPG peptide treated mice. FIG. 26B is a bar graph wherein data bars represent relative levels of IL-4 as determined by ELISA from control (DMSO) treated mouse and two different cPG peptide treated mice. FIG. 26C is a bar graph wherein data bars represent relative levels of IL-1β as determined by ELISA from control (DMSO) treated mouse and two different cPG peptide treated mice.
C57BL/6 mice were injected subcutaneously with B16F10 melanoma cells (0.5×10^6) and tumors were allowed to form. […] FIG. 26A is a bar graph wherein data bars represent relative levels of TGF-β as determined by ELISA from control (DMSO) treated mouse and two different cPG peptide treated mice. […]

integrin α10β1 [2] = target: T1, integrin α10β1 (Homo sapiens, UniProt O75578+P05556); assay: Solid-phase integrin binding to denatured collagen
T1 construct: purchased R&D Systems
Method: (§2) Plates were coated with 25 μg/ml of native or denatured (boiled 15 minutes) collagen. Collagen epitope peptide PGF and Cont-peptides were immobilized at 100 ug/ml. Integrins (0-2.0 μg/ml) were diluted in binding buffer containing 20 mM Tris, 15 mM NaCl, 1 mM MgCl2, 0.2 mM MnCl2, 0.5% BSA pH 7.4 as described (13). Integrins were allowed to bind for 1 hr and plates washed and incubated with anti-integrin antibodies (1:100 dilution) for 1 hr. Plates were washed and incubated with HRP-labeled secondary antibodies (1:5000 dilution). In a second assay, integrins (0.5 μg/ml) were coated in binding buffer and plates were washed, blocked as before and denatured (boiled 15 minutes) collagen was added (0-10.0 μg/ml). Denatured collagen was detected with anti-collagen antibody (1:1000). For integrin blocking ELISAs, wells were coated with denatured collagen and pre-treated (0.1 μg/ml) with anti-HU177 or control antibody. Following washing, wells were incubated with integrins (2.0 μg/ml) and binding was detected as described. Assays were carried out at least 3 times.

integrin αvβ3 [3] = target: T2, integrin αvβ3 (Homo sapiens, UniProt P05106+P06756); assay: Solid-phase integrin binding to synthetic HU177 epitope (PGF peptide); details: peptide immobilized 100 ug/ml; FIG. 23F
T2 construct: purchased R&D Systems (Minneapolis, Minn.)
Method: as §2

integrin α10β1 [4] = target: T1, integrin α10β1; assay: as above; details: peptide immobilized 100 ug/ml; FIG. 23F
Method: as §2

integrin α2β1 [5] = target: T3, integrin α2β1 (Homo sapiens, UniProt P05556+P17301); assay: as above; details: peptide immobilized 100 ug/ml; FIG. 23F
T3 construct: purchased R&D Systems
Method: as §2

XL313 epitope = assay: Circulating Mab XL313 reactive epitope in chick embryo serum (solid-phase ELISA); type: in vivo; details: serum collected three days after FGF-2 stimulation; FIG. 5A
Text: FIG. 5A-FIG. 5D are bar graphs depicting the induction of angiogenesis and inflammation in vivo by soluble RGDKGE (SEQ ID NO: 1) but not a related RGDAPG (SEQ ID NO: 11) containing collagen epitope. FIG. 5A is a bar graph depicting serum from chick embryos in which the CAMs had been either not stimulated (NT) or stimulated with FGF-2 was collected. Relative levels of circulating Mab XL313 reactive epitope were quantified by solid-phase ELISA. Data represent mean Mab XL313 reactivity±S.E (N=12 to 13). FIG. 5B is a bar graph depicting quantification of dose dependent induction of angiogenesis by RGDKGE (SEQ ID NO: 1) containing collagen peptide P-2. […] FIG. 5C is a bar graph depicting quantification of CAM angiogenesis associated with RGD containing collagen peptides P-1 (KGDRGDAPG; SEQ ID NO: 2), P-2 (QGPRGDKGE; SEQ ID NO: 3) or control peptide P-C (QGPSGSPGE; SEQ ID NO: 4). […] FIG. 5D is a bar graph depicting the quantification of CAM inflammation associated with RGD containing collagen peptides P-1 (KGDRGDAPG; SEQ ID NO: 2), P-2 (QGPRGDKGE; SEQ ID NO: 3) or control peptide P-C (QGPSGSPGE (SEQ ID NO: 4)). […]
Due to the differential expression and bio-distribution of the RGDKGE (SEQ ID NO: 1) epitope in angiogenic CAM tissues and its expression in macrophage-conditioned medium, it was determined whether a soluble circulating form of this RGDKGE (SEQ ID NO: 1) epitope could be generated. […]

[6] = tested on: chick chorioallantoic membrane (CAM); assay: Chick CAM inflammation assay, FGF-2 induced, no cortisone acetate; type: in vivo
Method: The chick chorioallantoic membrane (CAM) assays were carried out with some modifications (19). For all experiments CAMs of 10-day-old chick embryos obtained from Charles River (North Franklin, Conn.) were separated from the shell membrane. Filter discs either non-treated (inflammation assays) pretreated (angiogenesis assays) with cortisone acetate (3.0 mg/ml) containing RPMI only or FGF-2 (40 ng). CAMs were either non-treated or treated topically with Mab XL313, XL166 or a non-specific control antibody (10 μg/embryo every 24 h for three consecutive treatments). For peptide induction experiments, CAMs were stimulated with 100 ng/ml of the RGD peptides (P-1, P-2, P-C) in the presence or absence of the P38MAPK inhibitor, SB202190 (10 μM). At the end of the incubation period the embryos were sacrificed and the CAM tissues were analyzed. Angiogenesis was quantified by counting the number of angiogenic branching blood vessels within the area of the filter disc. The angiogenic index was determined by subtracting the mean number of blood vessel branch points from untreated CAMs from each experimental condition. Eight to twelve embryos were used per condition and experiments were repeated at least three times.
CAMs examined for accumulation of granulation tissue were harvested, fixed in 4% PFA and paraffin embedded and sectioned (4 μm) and stained with Giemsa. CAM tissues analyzed via immunofluorescence were harvested, embedded with OCT, snap frozen and sectioned ([…]). Frozen sections were fixed in 50% methanol/50% acetone, air dried and blocked with 2.5% BSA for 1 h at 37° C. For expression of the XL313 and XL166 epitopes as well as monocyte/macrophages, FGF-2 stimulated CAM tissues were stained with Mabs XL313, XL166 (50 μg/ml) or KUL1 (1:250) and then incubated with Alexa-488 labeled secondary antibodies (1:2000 dilution). […] Using a similar strategy, sections of RGD peptide-treated CAM tissues were analyzed for phosphorylated-P38MAPK in angiogenic vessels by co-incubation of anti-phospho-P38MAPK (1:50) and anti-vWf (1:500) antibodies. […]

integrin α1β1 = target: T4, integrin α1β1 (Homo sapiens, UniProt P05556+P56199); assay: Solid-phase integrin binding to denatured collagen; details: FIG. 23A
T4 construct: purchased R&D Systems (Minneapolis, Minn.)
Method: as §2

integrin αvβ3 [7] = target: T2, integrin αvβ3; assay: Solid-phase integrin binding to denatured collagen; details: FIG. 23A
Method: as §2

integrin α2β1 [8] = target: T3, integrin α2β1; assay: Solid-phase integrin binding to denatured collagen; details: FIG. 23A
Method: as §2

fibroblasts [9] = assay: Cell adhesion on native or denatured collagen; type: cell-based, human; details: FIG. 20B
Method: (§3) The wells of non-tissue culture forty-eight well cluster plates were coated for 12 hrs at 4° C. with 5 μg/ml of native or denatured (boiled 15 minutes) collagen prepared as described above. SKOV-3 and fibroblasts were suspended in adhesion buffer containing RPMI 1640, 1 mM MgCl2, 0.2 mM MnCl2 and 0.5% BSA (13) and 1×10^5 cells were added in the presence or absence of anti-HU177 or control antibodies (100 μg/ml). Cells were allowed to attach for 25 minutes. Non-attached cells were removed by washing and attached cells stained with crystal violet as described (13). Wells were washed and the cell-associated crystal violet was eluted with 100 ul per well of 10% acetic acid. Cell adhesion was quantified by measuring the optical density of the eluted crystal violet as described (15). Assays were completed at least 3×.

SKOV-3 cells [10] = assay: Cell adhesion on native or denatured collagen; type: cell-based, human; details: FIG. 20A
Method: as §3

fibroblasts [11] = assay: Transwell cell migration on native or denatured collagen; type: cell-based, human; details: FIG. 20D
Method: as §1

SKOV-3 cells [12] = assay: as above; type: cell-based, human; details: FIG. 20C
Method: as §1

T1 sequence (O75578 23-1122 limits assumed): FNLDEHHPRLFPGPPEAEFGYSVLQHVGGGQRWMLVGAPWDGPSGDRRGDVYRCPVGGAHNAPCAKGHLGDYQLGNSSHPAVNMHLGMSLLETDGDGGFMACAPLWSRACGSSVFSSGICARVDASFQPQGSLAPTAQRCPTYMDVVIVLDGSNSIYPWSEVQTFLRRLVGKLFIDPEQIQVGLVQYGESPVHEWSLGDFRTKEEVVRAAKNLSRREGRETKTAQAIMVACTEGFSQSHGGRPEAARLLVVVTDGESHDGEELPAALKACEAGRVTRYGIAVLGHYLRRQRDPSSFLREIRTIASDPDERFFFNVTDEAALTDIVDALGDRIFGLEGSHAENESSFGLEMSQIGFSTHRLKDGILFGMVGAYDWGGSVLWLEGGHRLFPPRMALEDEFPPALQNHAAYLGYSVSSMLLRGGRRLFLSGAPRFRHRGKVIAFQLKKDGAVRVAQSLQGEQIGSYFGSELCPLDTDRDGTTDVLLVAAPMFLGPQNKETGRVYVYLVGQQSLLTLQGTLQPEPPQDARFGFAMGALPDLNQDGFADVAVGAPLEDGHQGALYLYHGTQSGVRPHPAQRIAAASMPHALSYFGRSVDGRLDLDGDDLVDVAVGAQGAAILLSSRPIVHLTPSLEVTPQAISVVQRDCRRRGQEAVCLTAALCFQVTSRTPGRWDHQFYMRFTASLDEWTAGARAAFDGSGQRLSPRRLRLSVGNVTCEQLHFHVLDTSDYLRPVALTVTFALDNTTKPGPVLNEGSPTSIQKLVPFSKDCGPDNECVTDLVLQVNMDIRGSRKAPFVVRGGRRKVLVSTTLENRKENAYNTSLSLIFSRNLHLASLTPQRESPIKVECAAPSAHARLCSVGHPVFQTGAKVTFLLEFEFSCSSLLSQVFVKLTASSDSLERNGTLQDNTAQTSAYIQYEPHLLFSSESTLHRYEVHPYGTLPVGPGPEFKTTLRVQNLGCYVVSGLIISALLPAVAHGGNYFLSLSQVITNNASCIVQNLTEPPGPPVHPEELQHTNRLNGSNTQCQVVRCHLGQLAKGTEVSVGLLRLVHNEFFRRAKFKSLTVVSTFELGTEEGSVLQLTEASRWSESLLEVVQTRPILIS
T1 sequence (P05556 21-728 limits assumed): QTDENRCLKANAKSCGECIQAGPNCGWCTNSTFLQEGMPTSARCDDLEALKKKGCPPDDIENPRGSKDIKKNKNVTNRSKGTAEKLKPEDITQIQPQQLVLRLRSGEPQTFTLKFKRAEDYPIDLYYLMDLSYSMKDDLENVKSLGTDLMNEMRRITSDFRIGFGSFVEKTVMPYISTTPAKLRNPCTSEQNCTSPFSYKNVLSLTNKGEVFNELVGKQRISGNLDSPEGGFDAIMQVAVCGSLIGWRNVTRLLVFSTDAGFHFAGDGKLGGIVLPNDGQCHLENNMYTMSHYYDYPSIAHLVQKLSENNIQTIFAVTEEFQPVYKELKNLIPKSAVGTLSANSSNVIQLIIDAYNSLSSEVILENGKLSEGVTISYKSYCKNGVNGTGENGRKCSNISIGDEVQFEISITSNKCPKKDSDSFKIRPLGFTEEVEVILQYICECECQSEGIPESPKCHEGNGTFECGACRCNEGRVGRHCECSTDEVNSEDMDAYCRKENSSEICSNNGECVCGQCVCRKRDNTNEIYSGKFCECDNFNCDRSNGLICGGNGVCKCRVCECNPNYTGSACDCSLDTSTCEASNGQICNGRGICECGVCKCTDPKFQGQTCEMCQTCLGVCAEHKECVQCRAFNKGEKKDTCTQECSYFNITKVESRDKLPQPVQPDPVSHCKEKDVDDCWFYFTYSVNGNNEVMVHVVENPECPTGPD
T2 sequence (P06756 31-992 limits assumed): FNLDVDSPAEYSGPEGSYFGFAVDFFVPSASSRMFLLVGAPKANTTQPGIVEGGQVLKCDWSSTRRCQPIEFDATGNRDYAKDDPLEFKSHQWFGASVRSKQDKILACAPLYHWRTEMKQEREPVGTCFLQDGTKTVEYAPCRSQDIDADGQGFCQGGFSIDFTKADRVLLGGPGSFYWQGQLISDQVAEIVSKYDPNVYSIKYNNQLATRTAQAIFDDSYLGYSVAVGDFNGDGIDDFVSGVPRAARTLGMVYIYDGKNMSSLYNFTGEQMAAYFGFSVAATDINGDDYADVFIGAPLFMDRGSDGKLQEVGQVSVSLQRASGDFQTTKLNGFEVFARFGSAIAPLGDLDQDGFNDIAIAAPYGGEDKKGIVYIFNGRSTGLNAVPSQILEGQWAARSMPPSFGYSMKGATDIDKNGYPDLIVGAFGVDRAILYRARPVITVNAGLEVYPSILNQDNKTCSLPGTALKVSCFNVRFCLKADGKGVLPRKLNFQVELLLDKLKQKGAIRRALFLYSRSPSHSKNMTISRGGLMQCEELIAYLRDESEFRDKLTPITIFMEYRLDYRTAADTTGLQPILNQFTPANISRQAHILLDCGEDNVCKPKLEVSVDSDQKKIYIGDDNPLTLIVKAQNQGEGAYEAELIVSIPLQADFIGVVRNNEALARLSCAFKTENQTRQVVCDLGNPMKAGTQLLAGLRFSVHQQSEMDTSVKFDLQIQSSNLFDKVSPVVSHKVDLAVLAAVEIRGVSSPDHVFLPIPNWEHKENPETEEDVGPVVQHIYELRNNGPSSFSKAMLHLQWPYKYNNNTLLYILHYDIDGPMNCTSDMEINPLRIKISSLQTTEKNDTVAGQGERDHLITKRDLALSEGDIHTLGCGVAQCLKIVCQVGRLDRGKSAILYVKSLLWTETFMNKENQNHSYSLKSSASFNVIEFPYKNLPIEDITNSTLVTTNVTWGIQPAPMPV
T2 sequence (P05106 27-718 limits assumed): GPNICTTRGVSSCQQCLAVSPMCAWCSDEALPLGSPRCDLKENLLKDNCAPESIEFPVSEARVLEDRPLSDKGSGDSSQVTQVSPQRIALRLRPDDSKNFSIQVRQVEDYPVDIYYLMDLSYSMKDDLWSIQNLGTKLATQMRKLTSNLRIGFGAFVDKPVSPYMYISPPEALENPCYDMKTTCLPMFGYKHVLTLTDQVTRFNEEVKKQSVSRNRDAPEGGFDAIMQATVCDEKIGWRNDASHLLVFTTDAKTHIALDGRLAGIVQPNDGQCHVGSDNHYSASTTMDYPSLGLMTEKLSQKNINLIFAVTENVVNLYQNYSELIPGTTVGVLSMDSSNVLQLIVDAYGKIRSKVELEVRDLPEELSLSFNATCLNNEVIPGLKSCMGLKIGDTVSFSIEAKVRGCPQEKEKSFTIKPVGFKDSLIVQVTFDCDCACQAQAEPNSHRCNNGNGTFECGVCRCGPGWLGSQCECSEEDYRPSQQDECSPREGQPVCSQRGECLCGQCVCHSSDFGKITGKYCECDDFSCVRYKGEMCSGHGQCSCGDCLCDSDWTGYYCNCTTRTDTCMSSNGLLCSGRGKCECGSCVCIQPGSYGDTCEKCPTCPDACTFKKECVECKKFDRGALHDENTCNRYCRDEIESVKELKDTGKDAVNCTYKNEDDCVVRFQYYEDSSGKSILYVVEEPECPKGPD
T3 sequence (P17301 30-1132 limits assumed): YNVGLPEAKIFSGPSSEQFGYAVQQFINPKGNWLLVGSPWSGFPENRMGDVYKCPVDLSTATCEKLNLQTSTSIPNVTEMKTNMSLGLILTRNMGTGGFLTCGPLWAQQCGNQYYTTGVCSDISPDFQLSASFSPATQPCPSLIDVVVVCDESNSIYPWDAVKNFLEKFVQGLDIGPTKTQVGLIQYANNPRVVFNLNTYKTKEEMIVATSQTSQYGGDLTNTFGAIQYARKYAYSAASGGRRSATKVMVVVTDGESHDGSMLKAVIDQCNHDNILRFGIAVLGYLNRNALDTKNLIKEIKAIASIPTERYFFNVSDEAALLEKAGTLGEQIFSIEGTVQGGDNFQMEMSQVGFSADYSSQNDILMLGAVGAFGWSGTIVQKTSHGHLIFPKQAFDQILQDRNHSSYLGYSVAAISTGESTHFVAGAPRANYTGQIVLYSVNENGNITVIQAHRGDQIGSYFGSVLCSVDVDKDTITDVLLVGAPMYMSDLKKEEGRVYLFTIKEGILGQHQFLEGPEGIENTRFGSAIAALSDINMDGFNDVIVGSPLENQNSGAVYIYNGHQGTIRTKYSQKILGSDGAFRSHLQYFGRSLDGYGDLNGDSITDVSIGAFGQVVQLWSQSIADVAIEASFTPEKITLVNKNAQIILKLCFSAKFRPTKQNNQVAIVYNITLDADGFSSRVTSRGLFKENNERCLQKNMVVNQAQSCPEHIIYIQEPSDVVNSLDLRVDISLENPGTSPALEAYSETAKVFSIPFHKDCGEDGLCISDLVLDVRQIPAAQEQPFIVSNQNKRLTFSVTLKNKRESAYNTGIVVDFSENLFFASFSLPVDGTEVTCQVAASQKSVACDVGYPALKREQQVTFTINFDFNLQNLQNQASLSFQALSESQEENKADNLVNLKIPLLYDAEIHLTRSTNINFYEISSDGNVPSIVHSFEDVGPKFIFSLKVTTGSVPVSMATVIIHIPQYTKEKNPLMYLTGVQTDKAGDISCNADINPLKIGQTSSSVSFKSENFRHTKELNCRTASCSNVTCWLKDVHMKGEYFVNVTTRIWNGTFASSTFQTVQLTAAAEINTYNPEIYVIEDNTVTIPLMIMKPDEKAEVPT
T3 sequence (P05556 21-728 limits assumed): as the sequence (P05556 21-728 limits assumed) above

COc1cccc(-c2cc(=O)c3ccccc3o2)c1N [MEK inhibitor (PD98059), PD98059]
FGF-2 stimulated fibroblast migration on denatured collagen (fibroblasts [1]): blocked

CPGFPGFC [PGF peptide]
expression of TGF-β in mouse serum (TGF-β): induce the expression
competition of binding of α10β1 to denatured collagen (integrin α10β1 [2]; soluble peptide, FIG. 23G): approximately 60%
direct binding of αvβ3 to the synthetic HU177 epitope (integrin αvβ3 [3]): failed to bind
binding of α10β1 to the synthetic HU177 epitope, relative to α2β1 (integrin α10β1 [4]): 4 fold
direct binding of α2β1 to the synthetic HU177 epitope (integrin α2β1 [5]): bound

FGF-2: Fibroblast growth factor-2 from R&D Systems, used to stimulate CAMs
increase in levels of circulating XL313 epitope (XL313 epitope): 2 fold
CAMs showing robust formation of thick granulation tissue ([6]; FGF-2 stimulation in the absence of cortisone acetate, FIG. 3E): approximately 50%
macrophage infiltration of the CAMs, enhancement as compared to control ([6]; FGF-2 stimulation without cortisone acetate, FIG. 3D): over 2 fold

denatured collagen: collagen type-I denatured by boiling the solution for 15 minutes
binding of integrin α1β1 to denatured collagen (integrin α1β1): minimal interactions
binding of integrin αvβ3 to denatured collagen (integrin αvβ3 [7]): dose dependently bound
binding of denatured collagen and integrin α10β1 (integrin α10β1 [2]; FIG. 23A, 23B): dose dependently bound
binding of integrin α2β1 to denatured collagen (integrin α2β1 [8]): dose dependently bound
enhancement of fibroblast adhesion as compared to native collagen (fibroblasts [9]): 29%
enhancement of SKOV-3 adhesion as compared to native collagen (SKOV-3 cells [10]): 38%
enhancement of fibroblast migration as compared to native collagen (fibroblasts [11]): 19%
enhancement of SKOV-3 migration as compared to native collagen (SKOV-3 cells [12]): 34%
